Experimental data as given in article PMC6811774, “Potent, selective, and subunit‐dependent activation of TRPC5 channels by a xanthine derivative” (British Journal of Pharmacology, 2019).

What was measured:
TRPC1:C5 channels = target: T1, TRPC1:C5 channels (Homo sapiens, UniProt P48995+Q9UL62); assay: Excised outside-out patch-clamp, HEK 293 cells transiently co-expressing hTRPC1 and hTRPC5; format: cell-based
T1 construct: expressed in transfected cells; host or cells: HEK 293 (transient, Lipofectamine 3000)
Description: HEK T‐REx™ cell line was transfected with TRPC5‐SYFP2 or TRPC4‐SYFP2 using FuGENE® HD transfection reagent. After 48 hr, cells were put under antibiotic selection using 400 μg·ml^−1 zeocin and 10 μg·ml^−1 blasticidin S (Invivogen, San Diego, California, USA). Medium changes were carried out regularly to remove dead cells. HEK T‐REx cells expressing tetracycline‐inducible human TRPC5, TRPC4–C1, and TRPC5–C1 were created as described previously (Akbulut et al., 2015; Ludlow et al., 2017; Rubaiy, Ludlow, Henrot, et al., 2017). […]
For electrophysiology experiments, cells were plated at a low density of 20–30% onto round or square glass coverslips (13 mm diameter or 5 × 5 mm), and TRPC expression in HEK T‐REx was induced with 1 μg·ml^−1 tetracycline 24 hr before experimentation. […] The patch‐clamp currents were recorded using Axopatch 200B or HEKA EPC‐800 amplifiers, digitized by a Digidata 1440 or PCI6229 (National Instruments Japan, Tokyo, Japan) and recorded to a computer using pCLAMP10 (Molecular Devices) or WinWCPV4.5 (developed by Dr John Dempster, University of Strathclyde, UK). […]

TRPC4:C1 channels = TRPC4:C1 channels (Homo sapiens, UniProt P48995+Q9UBN4); assay: [Ca2+]i measurement in (Tet+) HEK T-REx cells expressing hTRPC4-C1 concatemer; format: cell-based
Description: HEK T‐REx™ cell line was transfected with TRPC5‐SYFP2 or TRPC4‐SYFP2 using FuGENE® HD transfection reagent. After 48 hr, cells were put under antibiotic selection using 400 μg·ml^−1 zeocin and 10 μg·ml^−1 blasticidin S (Invivogen, San Diego, California, USA). Medium changes were carried out regularly to remove dead cells. HEK T‐REx cells expressing tetracycline‐inducible human TRPC5, TRPC4–C1, and TRPC5–C1 were created as described previously (Akbulut et al., 2015; Ludlow et al., 2017; Rubaiy, Ludlow, Henrot, et al., 2017). TRPC5–C1 and TRPC4–C1 concatemers allow expression of functional channels with defined 2:2 stoichiometry that display ion permeability and current–voltage relationships distinct from those of homomeric TRPC4:C4 or TRPC5:C5 channels and consistent with those obtained upon co‐expression of TRPC1 with TRPC4 or TRPC5 (Ludlow et al., 2017; Rubaiy, Ludlow, Bon, & Beech, 2017; Rubaiy, Ludlow, Henrot, et al., 2017). Cells were cultured in DMEM‐F12 GlutaMAX (Invitrogen, Paisley, UK) containing 10% FBS (Sigma‐Aldrich, Gillingham, UK), with the addition of blasticidin (10 μg·ml^−1) and zeocin (400 μg·ml^−1) to maintain the stable incorporation of the tetracycline repressor and the channel of interest, respectively. Expression of proteins was induced by the addition of tetracycline (1 μg·ml^−1, 24 hr). Cells were maintained in a humidified incubator with 5% CO2 at 37°C. HEK 293 cells stably expressing tetracycline‐regulated human http://www.guidetopharmacology.org/GRAC/ObjectDisplayForward?objectId=494 were prepared similarly and have also been described previously (McHugh, Flemming, Xu, Perraud, & Beech, 2003). For experiments using transient co‐expression of TRPC1 and TRPC5, HEK cells at 40–60% confluency were transfected with pIRES2‐AcGFP1 and pIRES2‐DsRed‐Express2 plasmids containing human TRPC1 and TRPC5, respectively, using Lipofectamine 3000 (ThermoFisher Scientific, Yokohama, Japan). All experiments using transient expression were performed within 48 hr after transfection. […]

Sequence of TRPC4:C1 channels (Q9UBN4 whole entry): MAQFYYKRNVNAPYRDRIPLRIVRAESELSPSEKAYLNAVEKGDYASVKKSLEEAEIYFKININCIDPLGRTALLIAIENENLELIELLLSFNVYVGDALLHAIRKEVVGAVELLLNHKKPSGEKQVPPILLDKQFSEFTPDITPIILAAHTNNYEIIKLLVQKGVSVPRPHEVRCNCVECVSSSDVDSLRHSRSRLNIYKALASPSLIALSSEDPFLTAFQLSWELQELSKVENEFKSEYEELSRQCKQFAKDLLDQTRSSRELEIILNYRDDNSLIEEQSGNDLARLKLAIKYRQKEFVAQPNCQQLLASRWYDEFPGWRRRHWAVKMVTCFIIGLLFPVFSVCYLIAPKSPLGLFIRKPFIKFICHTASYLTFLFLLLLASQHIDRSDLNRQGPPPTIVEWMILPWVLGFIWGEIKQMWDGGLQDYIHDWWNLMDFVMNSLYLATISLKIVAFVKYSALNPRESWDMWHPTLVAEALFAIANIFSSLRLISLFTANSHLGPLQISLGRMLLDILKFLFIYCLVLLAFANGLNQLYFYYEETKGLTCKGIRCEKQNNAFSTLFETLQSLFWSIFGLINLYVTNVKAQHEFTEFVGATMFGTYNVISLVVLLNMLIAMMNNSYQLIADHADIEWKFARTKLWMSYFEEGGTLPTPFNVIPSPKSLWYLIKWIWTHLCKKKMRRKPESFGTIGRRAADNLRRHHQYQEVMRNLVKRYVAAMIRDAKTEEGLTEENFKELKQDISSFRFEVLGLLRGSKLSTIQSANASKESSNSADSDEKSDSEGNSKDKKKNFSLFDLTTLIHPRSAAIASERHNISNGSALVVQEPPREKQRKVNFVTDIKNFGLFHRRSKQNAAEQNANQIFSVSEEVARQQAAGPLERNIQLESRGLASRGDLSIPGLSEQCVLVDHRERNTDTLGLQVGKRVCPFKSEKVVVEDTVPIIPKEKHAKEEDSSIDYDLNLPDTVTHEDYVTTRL
Sequence of TRPC4:C1 channels (P48995 whole entry): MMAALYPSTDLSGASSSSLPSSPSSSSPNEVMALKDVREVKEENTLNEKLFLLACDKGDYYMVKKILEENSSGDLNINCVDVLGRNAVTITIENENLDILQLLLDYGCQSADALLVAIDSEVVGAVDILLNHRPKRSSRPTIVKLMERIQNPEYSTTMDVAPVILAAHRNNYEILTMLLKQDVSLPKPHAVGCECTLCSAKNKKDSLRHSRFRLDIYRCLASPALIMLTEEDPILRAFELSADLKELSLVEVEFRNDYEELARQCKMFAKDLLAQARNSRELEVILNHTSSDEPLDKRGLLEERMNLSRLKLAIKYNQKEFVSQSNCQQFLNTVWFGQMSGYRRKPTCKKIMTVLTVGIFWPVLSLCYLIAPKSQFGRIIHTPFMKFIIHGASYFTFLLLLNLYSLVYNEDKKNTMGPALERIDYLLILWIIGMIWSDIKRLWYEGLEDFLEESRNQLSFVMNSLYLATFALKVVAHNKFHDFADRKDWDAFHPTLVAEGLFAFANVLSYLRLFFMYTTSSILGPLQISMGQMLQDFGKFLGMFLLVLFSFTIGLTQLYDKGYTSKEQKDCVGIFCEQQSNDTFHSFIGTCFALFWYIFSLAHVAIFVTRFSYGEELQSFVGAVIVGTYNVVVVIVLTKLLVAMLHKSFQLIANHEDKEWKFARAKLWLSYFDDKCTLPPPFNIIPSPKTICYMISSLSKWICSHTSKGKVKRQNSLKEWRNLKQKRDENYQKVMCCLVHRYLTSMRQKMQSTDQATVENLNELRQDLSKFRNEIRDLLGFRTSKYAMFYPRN
T1 sequence (Q9UL62 whole entry): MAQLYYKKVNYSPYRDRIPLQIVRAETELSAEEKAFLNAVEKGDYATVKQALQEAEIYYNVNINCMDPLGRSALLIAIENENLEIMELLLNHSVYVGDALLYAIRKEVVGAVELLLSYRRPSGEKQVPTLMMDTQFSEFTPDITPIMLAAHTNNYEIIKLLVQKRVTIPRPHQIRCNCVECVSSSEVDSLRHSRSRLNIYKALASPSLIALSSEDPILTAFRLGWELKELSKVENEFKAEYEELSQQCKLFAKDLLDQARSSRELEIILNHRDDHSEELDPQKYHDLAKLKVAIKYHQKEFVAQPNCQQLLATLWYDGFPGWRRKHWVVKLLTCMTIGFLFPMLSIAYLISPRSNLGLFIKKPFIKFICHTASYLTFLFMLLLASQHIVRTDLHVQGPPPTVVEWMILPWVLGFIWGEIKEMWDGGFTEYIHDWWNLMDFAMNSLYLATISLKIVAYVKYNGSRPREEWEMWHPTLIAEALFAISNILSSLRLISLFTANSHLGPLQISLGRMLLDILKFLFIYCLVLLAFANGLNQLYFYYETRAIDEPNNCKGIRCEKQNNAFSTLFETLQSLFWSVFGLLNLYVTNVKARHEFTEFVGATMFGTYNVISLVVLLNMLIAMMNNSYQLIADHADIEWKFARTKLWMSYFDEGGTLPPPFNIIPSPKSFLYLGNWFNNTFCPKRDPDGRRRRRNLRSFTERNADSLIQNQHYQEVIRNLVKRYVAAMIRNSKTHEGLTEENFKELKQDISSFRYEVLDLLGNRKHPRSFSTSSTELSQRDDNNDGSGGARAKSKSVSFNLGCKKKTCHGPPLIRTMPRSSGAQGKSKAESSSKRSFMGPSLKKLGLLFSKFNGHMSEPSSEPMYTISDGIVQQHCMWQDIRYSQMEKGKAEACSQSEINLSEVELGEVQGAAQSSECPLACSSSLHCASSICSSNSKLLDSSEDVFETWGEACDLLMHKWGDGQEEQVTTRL
T1 sequence (P48995 whole entry): as the sequence (P48995 whole entry) above

Question: `Cn1c(=O)n(CCCO)c(=O)c2c1nc(Oc1ccc(Cl)c(OC(F)(F)F)c1)n2Cc1ccc(Cl)cc1` [AM237] was tested. Which “Inhibition of inward and outward currents induced by EA” value (TRPC1:C5 channels; 30 nM EA, at 3 to 100 nM AM237) did it give?
Answer: full inhibition

Question: And the “Activation of TRPC1:C5 currents” value (TRPC1:C5 channels; outside-out patch)?
Answer: did not activate

Question: And the “Hill slope, inhibition of EA response” value (TRPC4:C1 channels)?
Answer: –1.3

Question: What about the “Effect of pretreatment on basal [Ca2+]i” value (TRPC4:C1 channels; 0.03–30 nM AM237) of the same compound?
Answer: did not affect

Question: And the “Activation upon acute administration ([Ca2+]i)” value (TRPC4:C1 channels; 3-300 nM AM237)?
Answer: lack of activation
